In patent US10238758B2, “Radiolabeled alpha-melanocyte stimulating hormone hybrid peptide for melanoma targeting” (STC.UNM, priority 2011, dated 2019):
pIC50: −log10 of the molar value. “Also recorded” adds a separate entry of the source. Blank lines part the entries; values can stand above or below the compound they belong to. Positions of bridges follow the written chain, without caps; N, C: chain ends. Non-standard residues stand in square brackets, D forms with d. Residues, ends and D or L forms follow the SMILES beside them.

Tests used:
αvβ3 integrin receptor = biological target: T1, αvβ3 integrin receptor (Homo sapiens, UniProt P05106+P06756); conditions: M21 melanoma cells, vs RGD-Lys-(Arg11)CCMSH; cited from earlier work
T1 construct: Both MC1 and αvβ3 integrin receptors are over-expressed in M21 melanoma cells [23]; endogenous in cells; host or cells: M21 human melanoma cells

MC1 receptor [1] = biological target: T2, MC1 receptor (Homo sapiens, UniProt Q01726); conditions: M21 melanoma cells, cited from earlier work
T2 construct: Both MC1 and αvβ3 integrin receptors are over-expressed in M21 melanoma cells [23]; endogenous in cells; host or cells: M21 human melanoma cells

MC1 receptor [2] = biological target: T3, MC1 receptor (Mus musculus, UniProt Q01727); assay: MC1 receptor competitive binding with 125I-(Tyr2)-NDP-MSH in B16/F1 melanoma cells; set-up: species or system murine
T3 construct: host or cells: B16/F1 murine melanoma cells
Source text: Amino acid and resin were purchased from Advanced ChemTech Inc. (Louisville, Ky.) and Novabiochem (San Diego, Calif.). ^125I-Tyr^2-[Nle^4, DPhe^7]-α-MSH {^125I-(Tyr^2)-NDP-MSH} was obtained from PerkinElmer, Inc. (Shelton, Conn.) for MC1 receptor binding assay. ^99mTcO4^− was purchased from Cardinal Health (Albuquerque, N. Mex.) for peptide radiolabeling. All other chemicals used in this study were purchased from Thermo Fisher Scientific (Waltham, Mass.) and used without further purification. B16/F1 murine melanoma cells were obtained from American Type Culture Collection (Manassas, Va.).
The RAD-Lys-(Arg^11)CCMSH was synthesized according to our published procedure, purified by reverse phase-high performance liquid chromatography (RP-HPLC) and characterized by LC-mass spectroscopy. The IC50 value of RAD-Lys-(Arg^11)CCMSH for the MC1 receptor was determined in B16/F1 melanoma cells. Briefly, the B16/F1 cells were harvested and seeded into a 24-well cell culture plate (0.2×10^6 cells/well) and incubated at 37° C. overnight. […] The radioactivities associated with cells were measured in a Wallac 1480 automated gamma counter (PerkinElmer, NJ). The IC50 value of RAD-Lys-(Arg^11)CCMSH was calculated using the Prism software (GraphPad Software, La Jolla, Calif.).

[3] = system: B16/F1 melanoma-bearing C57 mice; assay: Biodistribution in B16/F1 melanoma-bearing C57 mice; format: in vivo
Procedure: All the animal studies were conducted in compliance with Institutional Animal Care and Use Committee approval. The biodistribution of ^99mTc-RAD-Lys-(Arg^11)CCMSH was determined in B16/F1 melanoma-bearing C57 mice (Harlan, Indianapolis, Ind.). C57 mice were subcutaneously inoculated on the right flank with 1×10^6 B16/F1 cells. Tumor weights reached approximately 0.2 g at 10 days post cell inoculation. Each melanoma-bearing mouse was injected with 0.037 MBq of ^99mTc-RAD-Lys-(Arg^11)CCMSH via the tail vein. Groups of 5 mice were sacrificed at 0.5, 2, 4 and 24 h post-injection, and tumors and organs of interest were harvested, weighed and counted. Blood values were taken as 6.5% of the whole-body weight.
The specificity of tumor uptake was determined at 2 h post-injection by co-injecting ^99mTc-RAD-Lys-(Arg^11)CCMSH with 10 μg (6.1 nmol) of unlabeled NDP-MSH. L-lysine co-injection is effective in decreasing the renal uptake of radiolabeled α-MSH peptides. To determine the effect of L-lysine co-injection on the renal uptake of ^99mTc-RAD-Lys-(Arg^11)CCMSH, a group of 5 mice were injected with a mixture of 0.037 MBq of ^99mTc-RAD-Lys-(Arg^11)CCMSH and 12 mg of L-lysine. The mice were sacrificed at 2 h post-injection, and tumors and organs of interest were harvested, weighed and counted in a gamma counter.
Statistical analysis was performed using the Student's t-test for unpaired data to determine the significance of differences in tumor and kidney uptake between the groups in the biodistribution studies with/without peptide blockade or with/without L-lysine co-injection. Differences at the 95% confidence level (p<0.05) were considered significant.

B16/F1 melanoma cells = assay: Cellular internalization and efflux in B16/F1 melanoma cells; format: cell-based, murine; conditions: for activity internalized: 25° C.
Procedure: RAD-Lys-(Arg^11)CCMSH was radiolabeled with ^99mTc using the method described previously. The radiolabeled peptide was purified to single species by Waters RP-HPLC (Milford, Mass.) on a Grace Vydac C-18 reverse phase analytic column (Deerfield, Ill.) using a 20 min gradient of 16-26% acetonitrile in 20 mM HCl aqueous solution at a flow rate of 1 mL/min. Cellular internalization and efflux of ^99mTc-RAD-Lys-(Arg^11)CCMSH were evaluated in B16/F1 melanoma cells. Briefly, the B16/F1 cells in 24-well cell culture plates were incubated at 25° C. for 20, 40, 60, 90 and 120 min (n=4) in the presence of approximately 200,000 cpm of HPLC purified ^99mTc-RAD-Lys-(Arg^11)CCMSH. After incubation, the reaction medium was aspirated and the cells were rinsed twice with 0.5 mL of ice-cold pH 7.4, 0.2% BSA/0.01 M PBS. Cellular internalization of ^99mTc-RAD-Lys-(Arg^11) CCMSH was assessed by washing the cells with acidic buffer [40 mM sodium acetate (pH 4.5) containing 0.9% NaCl and 0.2% BSA] to remove the membrane-bound radioactivity. The remaining internalized radioactivity was obtained by lysing the cells with 0.5 mL of 1 N NaOH for 5 min. Membrane-bound and internalized ^99mTc activities were counted in a gamma counter. Cellular efflux of ^99mTc-RAD-Lys-(Arg^11)CCMSH was determined by incubating the B16/F1 cells with ^99mTc-RAD-Lys-(Arg^11)CCMSH for 2 h at 25° C., removing non-specific-bound radioactivity with 2×0.5 mL of ice-cold pH 7.4, 0.2% BSA/0.01 M PBS rinse, and monitoring radioactivity released into cell culture medium. At time points of 20, 40, 60, 90 and 120 min, the radioactivities in medium, on cell surface and in cells were separately collected and counted in a gamma counter.

[4] = system: B16/F1 melanoma-bearing C57 mouse; assay: SPECT/CT melanoma imaging in a B16/F1 melanoma-bearing C57 mouse; format: in vivo; conditions: 2 h post-injection
Procedure: (§1) Approximately 6.7 MBq of ^99mTc-RAD-Lys-(Arg^11)CCMSH was injected in a B16/F1 melanoma-bearing C57 mouse for imaging and urine analysis. The mouse was euthanized at 2 h post-injection for small animal SPECT/CT (Nano-SPECT/CT®, Bioscan) imaging, as well as to collect urine for analyzing the metabolites. The 9-min CT imaging was immediately followed by the whole-body SPECT scan. The SPECT scans of 24 projections were acquired. Reconstructed SPECT and CT data were visualized and co-registered using InVivoScope (Bioscan, Washington D.C.). The collected urine sample was centrifuged at 16,000 g for 5 min before the HPLC analysis. Thereafter, aliquots of the urine were injected into the HPLC. A 20-minute gradient of 16-26% acetonitrile/20 mM HCl with a flow rate of 1 mL/min was used for urine analysis.

[5] = Urinary metabolites by HPLC in a B16/F1 melanoma-bearing C57 mouse; format: in vivo; conditions: 2 h post-injection
Procedure: as §1

T2 sequence (Q01726 whole entry): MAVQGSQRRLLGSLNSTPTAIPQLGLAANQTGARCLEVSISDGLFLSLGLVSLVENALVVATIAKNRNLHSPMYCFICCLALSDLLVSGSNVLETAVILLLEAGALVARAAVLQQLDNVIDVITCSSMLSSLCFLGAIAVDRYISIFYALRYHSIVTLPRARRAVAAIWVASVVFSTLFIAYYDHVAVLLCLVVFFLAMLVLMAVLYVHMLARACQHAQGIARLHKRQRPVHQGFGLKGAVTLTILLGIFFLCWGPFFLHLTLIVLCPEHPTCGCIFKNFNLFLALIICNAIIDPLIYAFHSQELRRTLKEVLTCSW
T1 sequence (P06756 31-889 limits assumed): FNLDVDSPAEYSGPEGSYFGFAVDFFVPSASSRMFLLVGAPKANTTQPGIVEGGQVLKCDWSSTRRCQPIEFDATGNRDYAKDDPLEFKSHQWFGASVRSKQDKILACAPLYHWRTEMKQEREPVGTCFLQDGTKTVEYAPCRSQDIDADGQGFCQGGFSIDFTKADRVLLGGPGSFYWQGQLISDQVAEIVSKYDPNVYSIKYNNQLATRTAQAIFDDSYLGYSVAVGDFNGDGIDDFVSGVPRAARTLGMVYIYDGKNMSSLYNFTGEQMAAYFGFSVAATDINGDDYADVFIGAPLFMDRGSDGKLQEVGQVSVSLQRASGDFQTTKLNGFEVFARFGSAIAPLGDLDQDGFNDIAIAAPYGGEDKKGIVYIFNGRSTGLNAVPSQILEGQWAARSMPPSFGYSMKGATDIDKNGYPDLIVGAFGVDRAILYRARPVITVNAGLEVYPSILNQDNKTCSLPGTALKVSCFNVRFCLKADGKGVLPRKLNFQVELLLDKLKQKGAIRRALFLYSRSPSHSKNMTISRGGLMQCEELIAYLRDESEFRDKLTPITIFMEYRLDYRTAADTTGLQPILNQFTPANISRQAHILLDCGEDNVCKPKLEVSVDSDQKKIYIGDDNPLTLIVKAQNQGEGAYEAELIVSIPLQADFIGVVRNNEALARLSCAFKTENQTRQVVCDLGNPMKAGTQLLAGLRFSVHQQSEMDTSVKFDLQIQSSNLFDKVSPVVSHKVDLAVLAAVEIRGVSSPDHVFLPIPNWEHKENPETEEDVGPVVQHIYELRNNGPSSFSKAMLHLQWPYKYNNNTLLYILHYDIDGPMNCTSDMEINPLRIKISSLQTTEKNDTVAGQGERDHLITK
T1 sequence (P06756 891-1048 limits assumed): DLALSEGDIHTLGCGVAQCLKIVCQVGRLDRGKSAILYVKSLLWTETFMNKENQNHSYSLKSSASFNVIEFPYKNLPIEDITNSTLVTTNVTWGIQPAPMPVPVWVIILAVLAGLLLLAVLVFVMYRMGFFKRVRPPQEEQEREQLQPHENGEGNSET
T1 sequence (P05106 27-788): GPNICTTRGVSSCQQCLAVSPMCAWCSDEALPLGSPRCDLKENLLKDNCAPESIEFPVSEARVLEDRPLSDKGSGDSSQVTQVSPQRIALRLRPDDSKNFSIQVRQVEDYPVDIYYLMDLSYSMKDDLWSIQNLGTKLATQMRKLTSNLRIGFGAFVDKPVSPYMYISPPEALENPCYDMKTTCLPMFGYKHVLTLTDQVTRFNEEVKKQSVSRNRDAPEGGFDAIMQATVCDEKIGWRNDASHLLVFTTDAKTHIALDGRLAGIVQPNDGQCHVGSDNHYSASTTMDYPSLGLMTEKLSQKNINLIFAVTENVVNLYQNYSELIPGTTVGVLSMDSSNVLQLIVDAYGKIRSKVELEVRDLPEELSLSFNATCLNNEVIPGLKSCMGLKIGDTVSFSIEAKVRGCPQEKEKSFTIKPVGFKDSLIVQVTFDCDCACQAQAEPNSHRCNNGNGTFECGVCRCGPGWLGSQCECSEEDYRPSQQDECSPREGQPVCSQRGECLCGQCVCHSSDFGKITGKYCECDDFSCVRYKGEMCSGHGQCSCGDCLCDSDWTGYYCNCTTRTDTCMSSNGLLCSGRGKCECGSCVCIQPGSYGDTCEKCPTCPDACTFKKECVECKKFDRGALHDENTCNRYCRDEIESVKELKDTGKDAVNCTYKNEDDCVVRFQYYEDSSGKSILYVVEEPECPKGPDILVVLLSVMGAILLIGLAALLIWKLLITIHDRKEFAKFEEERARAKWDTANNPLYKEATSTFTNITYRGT
T3 sequence (Q01727 whole entry): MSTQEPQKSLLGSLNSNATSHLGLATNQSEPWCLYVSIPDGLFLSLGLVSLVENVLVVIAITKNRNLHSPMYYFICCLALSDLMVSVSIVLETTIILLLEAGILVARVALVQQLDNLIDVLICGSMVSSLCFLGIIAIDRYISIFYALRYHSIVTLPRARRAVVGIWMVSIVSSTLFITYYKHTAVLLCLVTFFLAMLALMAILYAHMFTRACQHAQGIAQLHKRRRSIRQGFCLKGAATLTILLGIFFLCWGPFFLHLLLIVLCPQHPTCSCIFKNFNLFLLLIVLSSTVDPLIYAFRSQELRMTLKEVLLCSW

Compound: CC(C)[C@H](NC(=O)[C@@H]1CCCN1C(=O)[C@H](CCCNC(=N)N)NC(=O)[C@H](CS)NC(=O)[C@H](Cc1c[nH]c2ccccc12)NC(=O)[C@H](CCCNC(=N)N)NC(=O)[C@@H](Cc1ccccc1)NC(=O)[C@H](Cc1c[nH]cn1)NC(=O)[C@H](CCC(=O)O)NC(=O)[C@H](CS)NC(=O)[C@H](CS)NC(=O)[C@H](CCCCN)NC(=O)[C@@H]1CC(=O)N[C@@H](CCCNC(=N)N)C(=O)N[C@@H](C)C(=O)N[C@@H](CC(=O)O)C(=O)N[C@H](Cc2ccc(O)cc2)C(=O)N1)C(N)=O [RAD-Lys-(Arg^11)CCMSH] (RAD[dY]DKCCEH[dF]RWCRPV-NH2; lactam N-5 (inferred))
decrease of αvβ3 integrin receptor binding affinity by switch from RGD to RAD (αvβ3 integrin receptor): 248 fold
increase of MC1 receptor binding affinity by switch from RGD to RAD (MC1 receptor [1]; vs RGD-Lys-(Arg11)CCMSH): 6.7 fold

pIC50 (MC1 receptor [2]): 9.59
tumor uptake with NDP-MSH co-injection as % of tumor uptake without ([3]; 10 μg (6.1 nmol) non-radiolabeled NDP-MSH co-injection, 2 h post-injection, p<0.01): 7.8%
liver uptake as % of liver uptake of 99mTc-RGD-Lys-(Arg11)CCMSH ([3]; 0.5 h post-injection): 66.2%
renal uptake relative to 99mTc-RGD-Lys-(Arg11)CCMSH ([3]; 0.5 h post-injection): 1.84 times
tumor uptake relative to 99mTc-RGD-Lys-(Arg11)CCMSH ([3]; 0.5 h post-injection): 1.51 times
effect of L-lysine co-injection on tumor uptake ([3]; 2 h post-injection): without affecting the tumor uptake
liver uptake as % of liver uptake of 99mTc-RGD-Lys-(Arg11)CCMSH ([3]; 2 h post-injection): 61.9%
renal uptake relative to 99mTc-RGD-Lys-(Arg11)CCMSH ([3]; 2 h post-injection): 1.39 times
tumor uptake relative to 99mTc-RGD-Lys-(Arg11)CCMSH ([3]; 2 h post-injection): 1.34 times
renal uptake relative to 99mTc-RGD-Lys-(Arg11)CCMSH ([3]; 4 h post-injection): 1.42 times
tumor uptake relative to 99mTc-RGD-Lys-(Arg11)CCMSH ([3]; 4 h post-injection): 1.43 times
liver uptake as % of liver uptake of 99mTc-RGD-Lys-(Arg11)CCMSH ([3]; 24 h post-injection): 72.3%
decrease of renal uptake by L-lysine co-injection ([3]; L-lysine co-injection): 46%
effect of peptide blockade co-injection on renal uptake ([3]; NDP-MSH co-injection): did not reduce the renal uptake
remained intact in urine [5]: Approximately 82%
transformed to a more lipophilic metabolite ([5]; urine): 18%
Compound: CC(C)[C@H](NC(=O)[C@@H]1CCCN1C(=O)[C@H](CCCNC(=N)N)NC(=O)[C@H](CS)NC(=O)[C@H](Cc1c[nH]c2ccccc12)NC(=O)[C@H](CCCNC(=N)N)NC(=O)[C@@H](Cc1ccccc1)NC(=O)[C@H](Cc1c[nH]cn1)NC(=O)[C@H](CCC(=O)O)NC(=O)[C@H](CS)NC(=O)[C@H](CS)NC(=O)[C@H](CCCCN)NC(=O)[C@@H]1CC(=O)N[C@@H](CCCNC(=N)N)C(=O)N[C@@H](C)C(=O)N[C@@H](CC(=O)O)C(=O)N[C@H](Cc2ccc(O)cc2)C(=O)N1)C(N)=O [^99mTc-RAD-Lys-(Arg^11)CCMSH, metal not drawn] (RAD[dY]DKCCEH[dF]RWCRPV-NH2; lactam N-5)
activity internalized (B16/F1 melanoma cells; 20 min post incubation): 59.20±5.10%
cellular internalization and retention, in words (B16/F1 melanoma cells; B16/F1 melanoma cells): rapid cellular internalization and extended cellular retention
activity internalized (B16/F1 melanoma cells; after 2 h incubation): 78.24±1.13%
visualization of melanoma lesions by SPECT/CT [4]: visualized clearly; also recorded: clearly visualized

Compound: RGD-Lys-(Arg^11)CCMSH [cyclic RGD {Arg-Gly-Asp-DTyr-Asp} motif conjugated to [Cys3,4,10, D-Phe7, Arg11]α-MSH3-13 peptide via a lysine linker, reference compound]
pIC50 (MC1 receptor [1]; from ref. 23, read-out: MC1 receptor binding affinity): 8.70
